Measured values reported in patent US20260091103A1, “NOVEL COMPOSITIONS COMPRISING TERPENOID AND MACROMOLECULE, AND USES THEREOF” (Powin Biomedical Co., Ltd., priority 2022, published 2026).
“Also recorded” adds a separate entry of the source.

What was measured:
macrophages (CD11b+) = test: Antigen-presenting cell recruitment in injected quadriceps muscle: macrophages (flow cytometry); assay type: in vivo, BALB/c mice; conditions: 50 μL i.m. into right quadriceps, versus vehicle-injected left quadriceps
Method: (§1) 15 BALB/c mice were randomly assigned into 5 groups (three mice per group), which were Paraffin oil@HACH group, Squalane@HACH group, Squalene@HACH group, Ocimene@HACH group, and Farnesene@HACH group.
(§2) 50 μL of the composition comprising Paraffin oil@HACH particles, composition comprising Squalane@HACH particles, composition comprising Squalene@HACH particles, composition comprising Ocimene@HACH particles, or composition comprising Farnesene@HACH particles (the test samples in this experiment) was injected intramuscularly into the right quadriceps of mice in the Paraffin oil@HACH group, Squalane@HACH group, Squalene@HACH group, Ocimene@HACH group, and Farnesene@HACH group, respectively; and 50 μL of sodium citrate buffer (pH=6.5) (the vehicle control in this experiment) was injected intramuscularly into the left quadriceps of mice in these groups to monitor the effect induced by the injection on each mouse.
(§3) The mice in each group were sacrificed at 5th day after injection.
(§4) The left quadriceps muscles and the right quadriceps muscles of each mouse were harvested respectively. The tendons were removed, and muscles were digested with 3 mL of phosphate buffered saline (PBS) containing 0.05% (w/v) type II collagenase, 10 μg/mL of DNase I, and 0.5% BSA at 37° C. for 40 min. The muscle digestion was quenched by the addition of excess medium; and then the cell suspension was collected by centrifugation at 1200 rpm for 5 min, resuspended in PBS, and filtered through a 70-μm nylon mesh (BD-Biosciences).
The degree of macrophage cell (CD11b^+) recruitment in each mouse was assessed according to the following formula (VII): […]
(§5) The experimental procedure was roughly the same as that described in Experiment 1-4. The only differences were the compositions administered to the mice.
(§6) Cholesterol group: 50 μL of the N-methyl-2-pyrrolidone (NMP) solution comprising cholesterol (0.25 mg/mL) (the test sample in this group) was injected intramuscularly into the right quadriceps of mice; and 50 μL of N-methyl-2-pyrrolidone solution (the vehicle control in this group) was injected intramuscularly into the left quadriceps of mice to monitor the effect induced by the injection on each mouse.
(§7) Squalene group: 50 μL of the N-methyl-2-pyrrolidone (NMP) solution comprising squalene (50 μL/mL) (the test sample in this group) was injected intramuscularly into the right quadriceps of mice; and 50 μL of N-methyl-2-pyrrolidone solution (the vehicle control in this group) was injected intramuscularly into the left quadriceps of mice to monitor the effect induced by the injection on each mouse.

dendritic cells (CD11c+) = test: Antigen-presenting cell recruitment in injected quadriceps muscle: dendritic cells (flow cytometry); assay type: in vivo, BALB/c mice; conditions: 50 μL i.m. into right quadriceps, versus vehicle-injected left quadriceps
Method: as §1, §2, §3, §4
The degree of dendritic cell (CD11c^+) recruitment in each mouse was assessed according to the following formula (VI): […]
as §5, §6, §7

[1] = Condition suitable for self-assembly of Squalene@HACH particles (appearance of 28 compositions); assay type: physicochemical; conditions: by together forming squalene@HACH particles
Method: In this experiment, the condition suitable for self-assembly of Squalene@HACH particles was assessed and shown in a Ternary diagram.
There were 28 groups in this experiment, that is, the first to the 28th group. The preparation procedure of the compositions in each group was roughly the same as the experimental procedure of Composition comprising Squalene@HACH particles described in Experiment 1-1-4. The only differences were the weight of squalene, the weight of HACH, and the weight of sodium citrate solution (aqueous buffer solution).
Squalene@HACH particles in the compositions were detected and analyzed by dynamic light scattering, particle size analyzer, or transmission electron microscope. Moreover, please note that if the self-assembly of the Squalene@HACH particles occur in the composition, the composition would be a milk-like mixture solution (milk-like suspension).

CD8+ T cell = test: T cell immunity: CD8+ T cells in splenocytes of immunized mice (flow cytometry); conditions: splenocytes on day 28; i.m. on day 0 and day 14
Method: (§8) 12 BALB/c mice were randomly assigned into 4 groups (three mice per group), which were PBS group, WT1 group, WT1+IFN-alpha-based adjuvant group, and WT1+Squalene@HACH group.
(§9) PBS group: 50 μL of the phosphate buffered saline was injected intramuscularly into both of the left and right quadriceps of mice on day 0 and day 14.
(§10) WT1 group: 50 μL of the sodium citrate solution comprising 25 μL of WT1 protein was injected intramuscularly into both of the left and right quadriceps of mice on day 0 and day 14. […]
(§11) The splenocytes were isolated by the following procedure: the spleen was gently pressed with the plunger seal of a 5-mL syringe on a 70-μm cell strainer into a 50-mL tube and washed through a cell strainer with RPMI 1640 containing 10% (v/v) FBS. […] The cell solution was counted and diluted to the desired cell concentrations.
(§12) The cell suspensions obtained from the spleen of mice in each group were respectively mixed with a medium containing titrated fluorescent conjugates of monoclonal antibodies CD8a-Alexa Fluor 647 (BD Pharmingen), and CD4-FITC (Thermo Fisher). […] Finally, the stained cells were washed with staining buffer and analyzed by BD Accuri™ C6 flow cytometer.

CD4+ T cell = test: T cell immunity: CD4+ T cells in splenocytes of immunized mice (flow cytometry); conditions: splenocytes on day 28; i.m. on day 0 and day 14
Method: as §8, §9, §10, §11, §12

4T1 cells = test: Anti-tumor activity in 4T1 breast cancer mouse model; assay type: in vivo, BALB/c mice; design: key to Survival Status on Day 53: Dead means that the mouse died because of the tumor; Dead * means that the mouse died from attack by other mice
Method: On Day 0, after the injection process as described above was completed, 0.05 mL of the phosphate buffered saline (PBS) comprising 4T1 cells (2×10^6 cells/mL; 4T1 cell is abreast cancer cell line) was injected subcutaneously into the abdominal mammary fat pad of the mice in each group, and the tumor volume and survival status of mice were initially monitored on this day (Day 0). Tumor volume was calculated by ½*(4*3.14/3)*(length/2)*(width/2)*height*1000, and the observation of the tumor volume and survival status was stopped if the mouse was defined as either death or paralysis or the tumor volume of the mouse exceeding 1000 mm^3.

[2] = individual mouse, i.m. on Day −14 and Day 0, 4T1 cells s.c. on Day 0

| Compound | Macrophages (CD11b+) recruitment, in words (macrophages (CD11b+)) | Dendritic cells (CD11c+) recruitment, in words (dendritic cells (CD11c+)) | other results |
| --- | --- | --- | --- |
| CC(C)CCC[C@@H](C)[C@H]1CC[C@H]2[C@@H]3CC=C4C[C@@H](O)CC[C@]4(C)[C@H]3CC[C@]12C [cholesterol] | lack the ability to recruit | lack the ability to recruit | – |
| hyaluronic acid-cholesterol conjugate [HACH] | – | – | Weight units of squalene coated by 1 weight unit of HACH [1]: 80 weight units |
| CC(C)=CCC/C(C)=C/CC/C(C)=C/CC/C=C(\C)CC/C=C(\C)CCC=C(C)C [squalene] | lack the ability to recruit | lack the ability to recruit | – |
| CCCCCCCCCCCCCCCCCCN [ODA, octadecan-1-amine] | lack the ability to recruit | lack the ability to recruit | – |
| WT1: WT1 protein, targeted antigen, given alone in sodium citrate solution | lacks the ability to recruit | lacks the ability to recruit | CD8+ T cell (CD8+ T cell): 27.5%; CD4+ T cell (CD4+ T cell): 34.1%; Survival Status on Day 53 (4T1 cells; [2]): Dead; The day of the Tumor Growth (4T1 cells; [2]): Day 18; also recorded: Day 21; also recorded: Day 25; Mice died on Day 53 (4T1 cells; of 6 mice per group): 6 mice; Mice in which tumor developed (4T1 cells; of 6 mice per group): 6 mice; Tumor was initially developed between (4T1 cells; range over tumor-bearing mice of the group): 18 to 25 days |
